Target: T1, His-tagged human recombinant active PKC theta (Homo sapiens, UniProt Q04759)
T1 construct: His; made in house
Assay: IMAP fluorescence polarization assay, inhibition of PKC theta kinase activity
Assay type: biochemical
Settings: ATP 10 μM, peptide substrate 50 nM, 60 minutes at 30° C.; read-out: IC50 IMAP PKCθ
Experimental: Inhibition of PKC theta kinase activity was measured using an Immobilized Metal for Phosphochemicals—based coupled assay (IMAP). IMAP is a homogeneous fluorescence polarization (FP) assay based on affinity capture of phosphorylated peptide substrates. IMAP uses fluorescein-labeled peptide substrates that, upon phosphorylation by a protein kinase, bind to so called IMAP nanoparticles, which are derivatized with trivalent metal complexes. Such binding causes a change in the rate of the molecular motion of the peptide, and results in an increase in the FP value observed for the fluorescein label attached to the substrate peptide. In this assay, PKC theta directly phosphorylates the fluorescein-labeled peptide substrate.
Enzymes, substrate and ATP are diluted at all steps in Kinase Reaction buffer (10 mM Tris-HCl, 10 mM MgCl2, 0.01% Tween-20, 0.05% NaN3 pH 7.2, 1 mM DTT). The final volume at the kinase reaction step of the assay in the 384-well plate is 20 μl. The concentrations presented within brackets are final concentrations. First, compounds or DMSO (1%) are added to the wells. Thereafter, peptide substrate (Pseudosubstrate LHQRRGSIKQAKVHHVK-FL, Neosystem, 50 nM) and ATP (10 μM) are added followed by the addition of the PKC theta enzyme (His-tagged human recombinant active PKC theta, 82 kDa, in-house purified, 10 ng/ml), and the mix is incubated for 60 minutes at 30° C. in the dark. Then IMAP progressive binding buffer (100% 1× buffer A, 1:400 Progressive Binding Reagent; Molecular Devices) is added followed by an incubation step of 60 minutes at room temperature in the dark. Finally, the FP signal is read.

T1 sequence (Q04759 whole entry): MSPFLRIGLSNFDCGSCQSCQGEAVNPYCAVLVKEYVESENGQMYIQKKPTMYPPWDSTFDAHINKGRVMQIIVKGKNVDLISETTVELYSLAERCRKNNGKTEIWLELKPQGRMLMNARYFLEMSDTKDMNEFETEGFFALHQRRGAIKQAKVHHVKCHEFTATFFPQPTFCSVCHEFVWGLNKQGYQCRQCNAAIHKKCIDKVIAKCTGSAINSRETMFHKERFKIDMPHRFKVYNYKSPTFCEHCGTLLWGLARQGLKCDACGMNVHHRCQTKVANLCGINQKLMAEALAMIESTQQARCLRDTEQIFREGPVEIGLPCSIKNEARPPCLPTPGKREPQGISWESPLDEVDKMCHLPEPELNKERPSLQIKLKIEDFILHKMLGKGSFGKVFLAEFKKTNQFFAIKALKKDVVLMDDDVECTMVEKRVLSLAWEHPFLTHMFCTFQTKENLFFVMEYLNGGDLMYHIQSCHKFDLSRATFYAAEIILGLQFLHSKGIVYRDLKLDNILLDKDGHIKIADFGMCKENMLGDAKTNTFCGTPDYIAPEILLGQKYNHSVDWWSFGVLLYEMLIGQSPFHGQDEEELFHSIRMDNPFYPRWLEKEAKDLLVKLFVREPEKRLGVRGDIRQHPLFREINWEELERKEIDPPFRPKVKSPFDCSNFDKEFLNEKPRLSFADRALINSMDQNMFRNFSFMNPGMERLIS

Row | Compound | IC50
1 | Fc1ccc(CNc2ncc3cc(-c4ccccc4Cl)n(C[C@@H]4CCCNC4)c3n2)cc1F [Example 1.1, (R)-6-(2-chlorophenyl)-N-(3,4-difluorobenzyl)-7-(piperidin-3-ylmethyl)-7H-pyrrolo[2,3-d]pyrimidin-2-amine] | < 10 nM
2 | Oc1ccc(CNc2ncc3cc(-c4ccccc4Cl)n(C[C@@H]4CCCNC4)c3n2)cc1 [Example 1.2, (R)-4-((6-(2-chlorophenyl)-7-(piperidin-3-ylmethyl)-7H-pyrrolo[2,3-d]pyrimidin-2-ylamino)methyl)phenol] | 10 to 100 nM
3 | Oc1cccc(CNc2ncc3cc(-c4ccccc4Cl)n(C[C@@H]4CCCNC4)c3n2)c1 [Example 1.3, (R)-3-((6-(2-chlorophenyl)-7-(piperidin-3-ylmethyl)-7H-pyrrolo[2,3-d]pyrimidin-2-ylamino)methyl)phenol] | 10 to 100 nM
4 | Oc1ccc(CNc2ncc3cc(-c4ccccc4Cl)n(C[C@@H]4CCCNC4)c3n2)cc1F [Example 1.4, (R)-4-((6-(2-chlorophenyl)-7-(piperidin-3-ylmethyl)-7H-pyrrolo[2,3-d]pyrimidin-2-ylamino)methyl)-2-fluorophenol] | < 10 nM
5 | Oc1cccc(CNc2ncc3cc(-c4c(Cl)cccc4Cl)n(C[C@@H]4CCCNC4)c3n2)c1 [Example 2.1, (R)-3-((6-(2,6-dichlorophenyl)-7-(piperidin-3-ylmethyl)-7H-pyrrolo[2,3-d]pyrimidin-2-ylamino)methyl)phenol] | < 10 nM
6 | Fc1ccc(CNc2ncc3cc(-c4c(Cl)cccc4Cl)n(C[C@@H]4CCCNC4)c3n2)cc1F [Example 2.2, (R)-6-(2,6-dichlorophenyl)-N-(3,4-difluorobenzyl)-7-(piperidin-3-ylmethyl)-7H-pyrrolo[2,3-d]pyrimidin-2-amine] | < 10 nM
7 | Oc1ccc(CNc2ncc3cc(-c4c(Cl)cccc4Cl)n(C[C@@H]4CCCNC4)c3n2)cc1 [Example 2.3, (R)-4-((6-(2,6-dichlorophenyl)-7-(piperidin-3-ylmethyl)-7H-pyrrolo[2,3-d]pyrimidin-2-ylamino)methyl)phenol] | 100 to 10000 nM
8 | COc1ccc(CNc2ncc3cc(-c4c(Cl)cccc4Cl)n(C[C@@H]4CCCNC4)c3n2)cc1F [Example 2.4, (R)-6-(2,6-dichlorophenyl)-N-(3-fluoro-4-methoxybenzyl)-7-(piperidin-3-ylmethyl)-7H-pyrrolo[2,3-d]pyrimidin-2-amine] | < 10 nM
9 | Fc1cccc(CNc2ncc3cc(-c4c(Cl)cccc4Cl)n(C[C@@H]4CCCNC4)c3n2)c1 [Example 2.5, (R)-6-(2,6-dichlorophenyl)-N-(3-fluorobenzyl)-7-(piperidin-3-ylmethyl)-7H-pyrrolo[2,3-d]pyrimidin-2-amine] | < 10 nM
10 | Clc1cccc(Cl)c1-c1cc2cnc(NCc3ccccc3)nc2n1C[C@@H]1CCCNC1 [Example 2.6, (R)-N-benzyl-6-(2,6-dichlorophenyl)-7-(piperidin-3-ylmethyl)-7H-pyrrolo[2,3-d]pyrimidin-2-amine] | < 10 nM
11 | Cc1c(-c2ccccc2Cl)n(C[C@@H]2CCCNC2)c2nc(NCc3ccc(F)c(F)c3)ncc12 [Example 3.1, (R)-6-(2-chlorophenyl)-N-(3,4-difluorobenzyl)-5-methyl-7-(piperidin-3-ylmethyl)-7H-pyrrolo[2,3-d]pyrimidin-2-amine] | 10 to 100 nM
12 | Cc1c(-c2c(Cl)cccc2Cl)n(C[C@@H]2CCCNC2)c2nc(NCc3ccc(F)c(F)c3)ncc12 [Example 3.2, (R)-6-(2,6-dichlorophenyl)-N-(3,4-difluorobenzyl)-5-methyl-7-(piperidin-3-ylmethyl)-7H-pyrrolo[2,3-d]pyrimidin-2-amine] | < 10 nM
13 | Cc1c(-c2ccccc2)n(C[C@@H]2CCCNC2)c2nc(NCc3ccc(F)c(F)c3)ncc12 [Example 3.3, (R)—N-(3,4-difluorobenzyl)-5-methyl-6-phenyl-7-(piperidin-3-ylmethyl)-7H-pyrrolo[2,3-d]pyrimidin-2-amine] | 100 to 10000 nM
14 | Fc1ccc(CNc2ncc3cc(-c4ccccc4Cl)n(C[C@H]4CCCNC4)c3n2)cc1F [Example 4.1, (S)-6-(2-chlorophenyl)-N-(3,4-difluorobenzyl)-7-(piperidin-3-ylmethyl)-7H-pyrrolo[2,3-d]pyrimidin-2-amine] | 10 to 100 nM
15 | Fc1ccc(CNc2ncc3cc(-c4ccccc4Cl)n(C[C@@H]4CCNC4)c3n2)cc1F [Example 4.2, (R)-6-(2-chlorophenyl)-N-(3,4-difluorobenzyl)-7-(pyrrolidin-3-ylmethyl)-7H-pyrrolo[2,3-d]pyrimidin-2-amine] | 100 to 10000 nM
16 | Fc1ccc(CNc2ncc3cc(-c4ccccc4Cl)n(C[C@H]4CCNC4)c3n2)cc1F [Example 4.3, (S)-6-(2-chlorophenyl)-N-(3,4-difluorobenzyl)-7-(pyrrolidin-3-ylmethyl)-7H-pyrrolo[2,3-d]pyrimidin-2-amine] | 10 to 100 nM
17 | Fc1ccc(CNc2ncc3cc(-c4ccccc4Cl)n(CC4CNCCO4)c3n2)cc1F (centres unmarked) [Example 4.4, 6-(2-chlorophenyl)-N-(3,4-difluorobenzyl)-7-(morpholin-2-ylmethyl)-7H-pyrrolo[2,3-d]pyrimidin-2-amine] | 10 to 100 nM
18 | Cc1ccc(-c2cc3cnc(NCc4ccc(F)c(F)c4)nc3n2C[C@@H]2CCCNC2)c(Cl)c1 [Example 5.1, (R)-6-(2-chloro-4-methylphenyl)-N-(3,4-difluorobenzyl)-7-(piperidin-3-ylmethyl)-7H-pyrrolo[2,3-d]pyrimidin-2-amine] | < 10 nM
19 | COc1ccc(-c2cc3cnc(NCc4ccc(F)c(F)c4)nc3n2C[C@@H]2CCCNC2)c(Cl)c1 [Example 5.2, (R)-6-(2-chloro-4-methoxyphenyl)-N-(3,4-difluorobenzyl)-7-(piperidin-3-ylmethyl)-7H-pyrrolo[2,3-d]pyrimidin-2-amine] | 10 to 100 nM
20 | Oc1ccc(-c2cc3cnc(NCc4ccc(F)c(F)c4)nc3n2C[C@@H]2CCCNC2)c(Cl)c1 [Example 5.3, (R)-3-chloro-4-(2-(3,4-difluorobenzylamino)-7-(piperidin-3-ylmethyl)-7H-pyrrolo[2,3-d]pyrimidin-6-yl)phenol] | < 10 nM
21 | Fc1ccc(CNc2ncc3cc(-c4ccc(Cl)cc4Cl)n(C[C@@H]4CCCNC4)c3n2)cc1F [Example 5.4, (R)-6-(2,4-dichlorophenyl)-N-(3,4-difluorobenzyl)-7-(piperidin-3-ylmethyl)-7H-pyrrolo[2,3-d]pyrimidin-2-amine] | 10 to 100 nM
22 | Fc1cc(Cl)c(-c2cc3cnc(NCc4ccc(F)c(F)c4)nc3n2C[C@@H]2CCCNC2)c(Cl)c1 [Example 5.5, (R)-6-(2,6-dichloro-4-fluorophenyl)-N-(3,4-difluorobenzyl)-7-(piperidin-3-ylmethyl)-7H-pyrrolo[2,3-d]pyrimidin-2-amine] | < 10 nM
23 | Oc1ccc(CNc2ncc3cc(-c4c(Cl)cccc4Cl)n(C[C@@H]4CCCNC4)c3n2)cc1Cl [Example 6.1, (R)-2-chloro-4-((6-(2,6-dichlorophenyl)-7-(piperidin-3-ylmethyl)-7H-pyrrolo[2,3-d]pyrimidin-2-ylamino)methyl)phenol] | < 10 nM
24 | Oc1ccc(CNc2ncc3cc(-c4c(Cl)cccc4Cl)n(C[C@@H]4CCCNC4)c3n2)cc1F [Example 6.2, (R)-4-((6-(2,6-dichlorophenyl)-7-(piperidin-3-ylmethyl)-7H-pyrrolo[2,3-d]pyrimidin-2-ylamino)methyl)-2-fluorophenol] | < 10 nM
25 | N#Cc1c(-c2c(Cl)cccc2Cl)n(C[C@@H]2CCCNC2)c2nc(NCc3ccc(F)c(F)c3)ncc12 [Example 7.1, (R)-6-(2,6-dichlorophenyl)-2-(3,4-difluorobenzylamino)-7-(piperidin-3-ylmethyl)-7H-pyrrolo[2,3-d]pyrimidine-5-carbonitrile] | < 10 nM
26 | Fc1ccc(CNc2ncc3c(F)c(-c4c(Cl)cccc4Cl)n(C[C@@H]4CCCNC4)c3n2)cc1F [Example 7.2, (R)-6-(2,6-dichlorophenyl)-N-(3,4-difluorobenzyl)-5-fluoro-7-(piperidin-3-ylmethyl)-7H-pyrrolo[2,3-d]pyrimidin-2-amine] | < 10 nM
27 | Fc1ccc(CNc2ncc3c(Br)c(-c4c(Cl)cccc4Cl)n(C[C@@H]4CCCNC4)c3n2)cc1F [Example 7.3, (R)-5-bromo-6-(2,6-dichlorophenyl)-N-(3,4-difluorobenzyl)-7-(piperidin-3-ylmethyl)-7H-pyrrolo[2,3-d]pyrimidin-2-amine] | < 10 nM
28 | Fc1ccc(CNc2ncc3cc(-c4c(Cl)cccc4Cl)n(CC4CNCCS4)c3n2)cc1F (centres unmarked) [Example 8.1, 6-(2,6-Dichlorophenyl)-N-(3,4-difluorobenzyl)-7-(thiomorpholin-2-ylmethyl)-7H-pyrrolo[2,3-d]pyrimidin-2-amine] | < 10 nM
29 | Fc1ccc(CNc2ncc3cc(-c4c(Cl)cccc4Cl)n(C4CCCNCC4)c3n2)cc1F (centres unmarked) [Example 8.2, 7-(Azepan-4-yl)-6-(2,6-dichlorophenyl)-N-(3,4-difluorobenzyl)-7H-pyrrolo[2,3-d]pyrimidin-2-amine] | < 10 nM
